One experiment relates to HepG2. The experiment is described as follows: Cytotoxicity against human HepG2 cells. In kind it is functional, cell-based.
A further experiment relates to A549. The experiment in a line: Cytotoxicity against human A549 cells. In kind it is functional, cell-based.
For the next experiment, the system named is HCT-116. The experiment in a line: Cytotoxicity against human HCT-116 cells. The experiment is classed as functional, cell-based.
For a further experiment, the system named is HeLa. The experiment in a line: Cytotoxicity against human HeLa cells. The experiment is classed as functional, cell-based.
The next experiment deals with MCF7. The experiment is described as follows: Cytotoxicity against human MCF7 cells. The experiment is classed as functional, cell-based.
A further experiment relates to Staphylococcus aureus. The experiment in a line: Antibacterial activity against Staphylococcus aureus by broth microdilution method. In kind it is functional. (Broth dilution looks for growth in wells or tubes with falling amounts of substance.)
The test system of the next experiment is Escherichia coli. The experiment in a line: Antibacterial activity against Escherichia coli by broth microdilution method. In kind it is functional.
The next experiment has as its system Pseudomonas aeruginosa. The experiment is described as follows: Antibacterial activity against Pseudomonas aeruginosa by broth microdilution method. In kind it is functional.
Experiment [1] is filed under the species Danio rerio. The experiment is described as follows: Induction of pro-angiogenic activity in transgenic Tg (flk1:EGFP) zebrafish model assessed as growth of intersegmental vessel at 10 uM for 24 hrs by olympus fluorescence microscopy analysis. The experiment is classed as functional, organism-based.
For experiment [2], the species on record is Danio rerio. The experiment is described as follows: Induction of pro-angiogenic activity in transgenic Tg (flk1:EGFP) zebrafish model assessed as growth of intersegmental vessel at 20 uM for 24 hrs by olympus fluorescence microscopy analysis. The experiment is classed as functional, organism-based.
For experiment [3], the species on record is Danio rerio. The experiment is described as follows: Induction of pro-angiogenic activity in transgenic Tg (flk1:EGFP) zebrafish model assessed as growth of intersegmental vessel at 40 uM for 24 hrs by olympus fluorescence microscopy analysis. In kind it is functional, organism-based.

In brackets after ≈: the same amount, converted by molar mass. Activity calls are given as the source filed them. The calls are words filed in the database; no cut-off is given here.

The MIC is the lowest concentration found to suppress growth. A higher MIC goes with weaker potency. With `COc1c(O)c(Cl)c2c(c1O)C(=O)O[C@H](C)[C@H]2OC(C)=O`, the result in the experiment on HepG2, in the experiment with A549, in the experiment on HCT-116, in the experiment with HeLa and in the experiment with MCF7 was inactive. Moreover, the MIC is 32 µg/mL (≈ 101 µM) against Staphylococcus aureus, 32 µg/mL (≈ 101 µM) with Escherichia coli and more than 64 µg/mL in the experiment on Pseudomonas aeruginosa. Besides, the outcome in the experiment listed under Danio rerio [1], in the experiment filed under Danio rerio [2] and in the experiment listed under Danio rerio [3] was Active.

As to `COc1c(O)cc2cc(C)oc(=O)c2c1O`, the outcome with HepG2, with A549, in the experiment with HCT-116, in the experiment with HeLa and with MCF7 was inactive. The MIC was 4 µg/mL (≈ 18 µM) in the experiment with Staphylococcus aureus, 16 µg/mL (≈ 72 µM) with Escherichia coli and 32 µg/mL (≈ 144 µM) against Pseudomonas aeruginosa.

For `COc1c(O)cc2c(c1O)C(=O)O[C@H](C)[C@@H]2Oc1c(Cl)c2c(c(O)c1OC)C(=O)O[C@H](C)[C@@H]2O`, the result with HepG2, with A549, in the experiment on HCT-116, with HeLa and with MCF7 was inactive. For the same molecule, the MIC with Staphylococcus aureus was found to be 64 µg/mL (≈ 129 µM); in the experiment with Escherichia coli, 8 µg/mL (≈ 16.1 µM); with Pseudomonas aeruginosa it was 64 µg/mL (≈ 129 µM).

Regarding `COc1c(O)c(Cl)c2c(c1O)C(=O)O[C@H](C)C2`, the result with HepG2, with A549, with HCT-116, in the experiment on HeLa and in the experiment with MCF7 was inactive. Besides, the MIC is 32 µg/mL (≈ 124 µM) in the experiment with Staphylococcus aureus, 2 µg/mL (≈ 7.73 µM) in the experiment with Escherichia coli and 32 µg/mL (≈ 124 µM) in the experiment on Pseudomonas aeruginosa.

As for `COc1c(O)cc2c(c1O)C(=O)O[C@H](C)[C@@H]2O`, the result in the experiment with HepG2, in the experiment with A549, in the experiment on HCT-116, in the experiment with HeLa and in the experiment on MCF7 was inactive. Moreover, the minimum inhibitory concentration (MIC) amounted to 64 µg/mL (≈ 266 µM) with Staphylococcus aureus, 8 µg/mL (≈ 33.3 µM) with Escherichia coli and 64 µg/mL (≈ 266 µM) in the experiment with Pseudomonas aeruginosa.

With `COc1c(O)cc2c(c1O)C(=O)O[C@H](C)[C@H]2Oc1c(Cl)c2c(c(O)c1OC)C(=O)O[C@H](C)C2`, the outcome in the experiment with HepG2, in the experiment with A549, with HCT-116, in the experiment on HeLa and in the experiment on MCF7 was inactive. Also, the MIC is 64 µg/mL (≈ 133 µM) in the experiment with Staphylococcus aureus, 32 µg/mL (≈ 66.5 µM) with Escherichia coli and 32 µg/mL (≈ 66.5 µM) against Pseudomonas aeruginosa.

Take `COc1c(O)c(Cl)c2c(c1O)C(=O)O[C@H](C)[C@H]2O`: the outcome in the experiment with HepG2, in the experiment on A549, with HCT-116, in the experiment with HeLa and with MCF7 was inactive. Moreover, the MIC was determined as 64 µg/mL (≈ 233 µM) with Staphylococcus aureus, 32 µg/mL (≈ 117 µM) against Escherichia coli and 32 µg/mL (≈ 117 µM) against Pseudomonas aeruginosa.

Take `COc1c(O)cc2c(c1O)C(=O)O[C@H](C)[C@H]2OC`: the outcome in the experiment with HepG2, with A549, with HCT-116, in the experiment on HeLa and with MCF7 was inactive. In addition, the MIC with Staphylococcus aureus worked out at 64 µg/mL (≈ 252 µM); against Escherichia coli it was 16 µg/mL (≈ 62.9 µM); against Pseudomonas aeruginosa it was 64 µg/mL (≈ 252 µM).

With `C[C@H]1OC(=O)c2c(O)cc(O)cc2[C@H]1Cl`, the result in the experiment on HepG2, with A549, in the experiment with HCT-116, in the experiment with HeLa and with MCF7 was inactive. Besides, the MIC was determined as 64 µg/mL (≈ 280 µM) against Staphylococcus aureus, 32 µg/mL (≈ 140 µM) in the experiment on Escherichia coli and 64 µg/mL (≈ 280 µM) against Pseudomonas aeruginosa.

Regarding `CCO[C@H]1c2cc(O)c(OC)c(O)c2C(=O)O[C@@H]1C`, the result in the experiment on HepG2, with A549, in the experiment on HCT-116, with HeLa and in the experiment with MCF7 was inactive.

With `COc1c(O)cc2c(c1O)C(=O)O[C@H](C)[C@@H]2OC`, the outcome in the experiment on HepG2, in the experiment on A549, in the experiment with HCT-116, in the experiment with HeLa and in the experiment on MCF7 was inactive. The MIC in the experiment with Staphylococcus aureus is 64 µg/mL (≈ 252 µM); in the experiment with Escherichia coli, 16 µg/mL (≈ 62.9 µM); against Pseudomonas aeruginosa it was 64 µg/mL (≈ 252 µM).

As to `COc1c(O)c(Cl)c2c(c1O)C(=O)O[C@H](C)[C@@H]2O`, the outcome with HepG2, in the experiment with A549, in the experiment with HCT-116, with HeLa and with MCF7 was inactive. The MIC with Staphylococcus aureus, in the experiment on Escherichia coli and against Pseudomonas aeruginosa was 64 µg/mL (≈ 233 µM) in each case.

`COc1c(O)cc2c(c1O)C(=O)O[C@H](C)[C@H]2Oc1c(Cl)c2c(c(O)c1OC)C(=O)O[C@H](C)[C@H]2O`: the outcome in the experiment on HepG2, in the experiment with A549, with HCT-116, with HeLa and in the experiment on MCF7 was inactive. The MIC came out at 64 µg/mL (≈ 129 µM) against Staphylococcus aureus, 32 µg/mL (≈ 64.4 µM) with Escherichia coli and 64 µg/mL (≈ 129 µM) with Pseudomonas aeruginosa. The result in the experiment filed under Danio rerio [1], in the experiment listed under Danio rerio [2] and in the experiment filed under Danio rerio [3] was Active.

As for `COc1c(O)cc2c(c1O)C(=O)O[C@H](C)[C@@H]2Oc1c(Cl)c2c(c(O)c1OC)C(=O)O[C@H](C)C2`, the result in the experiment on HepG2, with A549, in the experiment with HCT-116, in the experiment on HeLa and in the experiment on MCF7 was inactive. For the same molecule, the MIC with Staphylococcus aureus stood at 64 µg/mL (≈ 133 µM); against Escherichia coli, 64 µg/mL (≈ 133 µM); in the experiment with Pseudomonas aeruginosa it was 32 µg/mL (≈ 66.5 µM).

On to `O=C(O)c1cn(C2CC2)c2cc(N3CCNCC3)c(F)cc2c1=O` [CIPROFLOXACIN], for which the minimal inhibitory concentration (MIC) was found to be 0.5 µg/mL (≈ 1.51 µM) with Staphylococcus aureus and 4 µg/mL (≈ 12.1 µM) with Pseudomonas aeruginosa.

As to `COc1c(O)cc2c(c1O)C(=O)O[C@H](C)[C@H]2Oc1cc2c(c(O)c1OC)C(=O)O[C@H](C)C2`, the outcome in the experiment on HepG2, in the experiment on A549, with HCT-116, in the experiment with HeLa and with MCF7 was inactive. The MIC against Staphylococcus aureus came to 2 µg/mL (≈ 4.48 µM); in the experiment with Escherichia coli, 1 µg/mL (≈ 2.24 µM); with Pseudomonas aeruginosa, 32 µg/mL (≈ 71.7 µM).

As for `COc1c(O)cc2c(c1O)C(=O)O[C@H](C)[C@H]2Oc1cc2c(c(O)c1OC)C(=O)O[C@H](C)[C@@H]2O`, the result in the experiment with HepG2, in the experiment with A549, in the experiment with HCT-116, in the experiment with HeLa and in the experiment with MCF7 was inactive. Also, the results for the MIC in the experiment on Staphylococcus aureus, with Escherichia coli and in the experiment on Pseudomonas aeruginosa were 16 µg/mL (≈ 34.6 µM), 64 µg/mL (≈ 138 µM) and 16 µg/mL (≈ 34.6 µM), respectively.

`COc1c(O)cc2c(c1O)C(=O)O[C@H](C)[C@@H]2Oc1cc2c(c(O)c1OC)C(=O)O[C@H](C)C2`: the result in the experiment with HepG2, in the experiment with A549, in the experiment with HCT-116, in the experiment on HeLa and with MCF7 was inactive. Moreover, the MIC in the experiment on Staphylococcus aureus stood at 64 µg/mL (≈ 143 µM); against Escherichia coli, 1 µg/mL (≈ 2.24 µM); against Pseudomonas aeruginosa, 32 µg/mL (≈ 71.7 µM).

Regarding `C[C@@H]1Cc2cc(O)c(O)c(O)c2C(=O)O1`, the outcome in the experiment on HepG2, with A549, in the experiment on HCT-116, in the experiment with HeLa and in the experiment with MCF7 was inactive. The MIC in the experiment with Staphylococcus aureus was found to be 64 µg/mL (≈ 304 µM); in the experiment on Escherichia coli, 64 µg/mL (≈ 304 µM); against Pseudomonas aeruginosa, 32 µg/mL (≈ 152 µM).

Turning to `COc1c(O)cc2c(c1O)C(=O)O[C@H](C)[C@@H]2Oc1c(Cl)c2c(c(O)c1OC)C(=O)O[C@H](C)[C@H]2O`, the result in the experiment with HepG2, with A549, in the experiment with HCT-116, in the experiment on HeLa and with MCF7 was inactive. The MIC in the experiment with Staphylococcus aureus was 64 µg/mL (≈ 129 µM); against Escherichia coli, 32 µg/mL (≈ 64.4 µM); against Pseudomonas aeruginosa, 32 µg/mL (≈ 64.4 µM). For the same molecule, the outcome in the experiment filed under Danio rerio [1], in the experiment filed under Danio rerio [2] and in the experiment listed under Danio rerio [3] was Active.

As to `COc1c(O)cc2c(c1O)C(=O)O[C@H](C)[C@H]2Oc1c(Cl)c2c(c(O)c1OC)C(=O)O[C@H](C)[C@@H]2O`, the outcome in the experiment on HepG2, in the experiment on A549, in the experiment with HCT-116, in the experiment with HeLa and with MCF7 was inactive. For the same molecule, the MIC in the experiment with Staphylococcus aureus turned out to be 64 µg/mL (≈ 129 µM); in the experiment with Escherichia coli, 4 µg/mL (≈ 8.05 µM); in the experiment with Pseudomonas aeruginosa, 64 µg/mL (≈ 129 µM).

The record behind these values is ChEMBL document CHEMBL6153145, “Isocoumarins from Spegazzinia sp. MDCW-573 with Antibacterial and Proangiogenic Activities” (2025).
